This is an account of results in article PMC3646808, “Aggregate-Reactivation Activity of the Molecular Chaperone ClpB from Ehrlichia chaffeensis” (PLoS ONE, 2013).

For test [1], the target named is T1, EcClpB (Escherichia coli, UniProt P63284).
T1 construct: gene clpB; purified, produced or obtained as previously described; hexamer
Briefly: phosphate release ATPase assay. Type of test: biochemical. Particulars: 5 mM ATP, 10 mM MgCl2, 100 mM Tris/HCl pH 8.0, 37 °C; basal activity.

Another test addresses T2, EhClpB (Ehrlichia chaffeensis, UniProt Q2GH96).
T2 construct: gene clpB
Particulars: 5 mM ATP, 10 mM MgCl2, 100 mM Tris/HCl pH 8.0, 37 °C; basal activity.

In test [2] the target is T1, EcClpB. Description: filter retention with SDS-PAGE, nucleotide-induced binding to aggregated G6PDH. Particulars: 6 mM nucleotide, 20 mM Mg(OAc)2, 50 mM Tris/HCl pH 7.5, 30 °C; indirect read-out.
Test [3] deals with ClpB from Ehrlichia chaffeensis (E. chaffeensis). Description: AUC; sedimentation velocity, 48,000 rpm, 20°C, 0.3 mg/ml protein in 50 mM Hepes/KOH pH 7.5, 0.2 M KCl, 20 mM MgCl2, 1 mM EDTA, 2 mM β-mercaptoethanol, with 2 mM ATPγS.

T1 sequence (P63284 whole entry): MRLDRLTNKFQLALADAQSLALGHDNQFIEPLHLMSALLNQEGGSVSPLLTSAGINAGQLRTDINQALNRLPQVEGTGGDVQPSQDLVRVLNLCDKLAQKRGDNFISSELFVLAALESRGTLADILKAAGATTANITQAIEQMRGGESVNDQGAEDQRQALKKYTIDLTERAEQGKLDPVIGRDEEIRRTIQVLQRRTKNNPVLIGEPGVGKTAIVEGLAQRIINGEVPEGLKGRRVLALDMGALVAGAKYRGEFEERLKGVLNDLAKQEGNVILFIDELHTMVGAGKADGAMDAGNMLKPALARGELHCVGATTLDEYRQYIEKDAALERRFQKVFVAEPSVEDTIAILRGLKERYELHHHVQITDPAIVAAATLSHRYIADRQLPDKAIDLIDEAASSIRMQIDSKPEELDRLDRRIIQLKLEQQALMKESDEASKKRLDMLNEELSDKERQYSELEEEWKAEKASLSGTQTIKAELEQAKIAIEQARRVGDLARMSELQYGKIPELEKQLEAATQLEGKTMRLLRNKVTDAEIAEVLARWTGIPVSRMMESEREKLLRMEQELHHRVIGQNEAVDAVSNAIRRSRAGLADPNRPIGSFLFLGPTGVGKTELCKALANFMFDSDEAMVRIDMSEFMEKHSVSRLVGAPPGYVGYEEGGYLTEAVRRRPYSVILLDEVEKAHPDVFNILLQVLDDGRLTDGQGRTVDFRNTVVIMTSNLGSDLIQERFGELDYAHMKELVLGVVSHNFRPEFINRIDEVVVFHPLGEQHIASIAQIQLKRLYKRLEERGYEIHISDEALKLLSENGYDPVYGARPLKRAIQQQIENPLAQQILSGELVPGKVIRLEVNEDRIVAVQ
T2 sequence (Q2GH96 entry or part of it): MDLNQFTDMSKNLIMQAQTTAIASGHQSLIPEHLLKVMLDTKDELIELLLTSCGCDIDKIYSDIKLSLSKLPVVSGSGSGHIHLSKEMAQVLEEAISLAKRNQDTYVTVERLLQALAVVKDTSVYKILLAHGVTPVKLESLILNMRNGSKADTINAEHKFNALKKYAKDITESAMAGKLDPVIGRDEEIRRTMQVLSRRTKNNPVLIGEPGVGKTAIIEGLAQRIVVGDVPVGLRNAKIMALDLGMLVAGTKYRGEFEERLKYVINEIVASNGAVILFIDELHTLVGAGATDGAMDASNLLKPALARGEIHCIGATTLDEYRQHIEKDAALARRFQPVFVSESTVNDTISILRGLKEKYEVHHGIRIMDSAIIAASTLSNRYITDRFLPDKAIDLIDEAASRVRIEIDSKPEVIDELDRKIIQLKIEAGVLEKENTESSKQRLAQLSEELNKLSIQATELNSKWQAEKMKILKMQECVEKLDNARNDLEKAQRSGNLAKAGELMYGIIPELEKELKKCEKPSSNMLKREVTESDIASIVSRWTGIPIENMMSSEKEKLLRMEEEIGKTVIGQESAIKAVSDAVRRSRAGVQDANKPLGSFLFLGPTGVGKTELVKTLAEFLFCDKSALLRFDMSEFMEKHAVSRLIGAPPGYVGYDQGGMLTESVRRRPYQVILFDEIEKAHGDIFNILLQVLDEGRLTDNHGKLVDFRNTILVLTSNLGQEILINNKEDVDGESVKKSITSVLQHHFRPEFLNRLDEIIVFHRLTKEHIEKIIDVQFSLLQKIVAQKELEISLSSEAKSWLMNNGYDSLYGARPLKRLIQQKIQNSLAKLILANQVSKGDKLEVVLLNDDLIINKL

With `Nc1ncnc2c1ncn2[C@@H]1O[C@H](COP(=O)(O)OP(=O)(O)OP(=O)(O)O)[C@@H](O)[C@H]1O` [ATP], the “phosphate release ATPase assay” value at EcClpB [1] and on EhClpB was “the basal ATPase of EhClpB was similar to that of the purified EcClpB” each time.

Regarding `Nc1ncnc2c1ncn2[C@@H]1O[C@H](COP(=O)(O)OP(=O)(O)OP(O)(O)=S)[C@@H](O)[C@H]1O` [ATPγS, adenosine-5'-(γ-thio)-triphosphate], the “filter retention with SDS-PAGE, nucleotide-induced binding to aggregated G6PDH” value on EcClpB [2] is reported as “only ATPγS induces significant binding of EcClpB to the aggregates”. Turning to “ClpB from Ehrlichia chaffeensis (natural protein)”, the stoichiometry N in test [3] was found to be 6.
